These are literature values, as cited in patent US8067367B2, “Methods of increasing platelet and hematopoietic stem cell production” (Janssen Pharmaceutica, N.V., priority 2002, dated 2011).

One series concerns CD34+ cells. The conditions noted are these: normal volunteers.
Another series has as its system CD34+ stem cells. The conditions noted are these: rhTPO with G-CSF; pilot study.
The subject of series [1] is HSCs in adult bone marrow. The note with it: exogenously added TPO; after bone marrow transplantation.
The mark [2] stands for this setting: single dose of TPO, cancer patients.

On to Thrombopoietin [TPO], for which the “CD34+ cells in the peripheral blood” value in the series on CD34+ cells is 16×10^3 cells/ml. The “mobilization and apheresis yields of CD34+ stem cells in response to G-CSF” value with CD34+ stem cells was “able to enhance the mobilization and apheresis yields of CD34+ stem cells”. The “increase in circulating CD34+ cells” value in the series on circulating CD34+ cells (3-7 days after a single dose of TPO, cancer patients with otherwise normal hematopoiesis) is listed as 6 fold. Further, in the series with circulating CD34+ cells (setting [2]), the “increase of committed megakaryocytic subfraction (CD34+CD41+CD14−)” value is listed as ~15 fold and the “increase of stem cell enriched subfraction (CD34+ Thy+Lin−)” value was ~9 fold. In addition, the “HSC expansion defect in tpo−/− mice” value in series [1] is given as “rescued this defect”.
